Measurements published in US6852316B2, “Cancer treatment” (Queen Mary & Westfield College, priority 1998, dated 2005).
Entries after “also recorded” stand apart in the source; their conditions may differ.

Experiments:
Type in all cases: cell-based
β1 integrin [1] = experiment: Immunocytochemistry for β1 integrin expression in MCF-7 cancer cell line; conditions: MCF-7 cells treated with A-II at 10^−5 M, versus control
Procedure: Immunocytochemical straining of both receptors was based on the standard streptavidinbiotin peroxidase method. For the optimal working concentration of both antibodies serial dilutions were performed. The AT1R antibody 6313/G2 in the range 1:1 to 1:500 and for anti-β1 integrin between 1:10 and 1:500.
For integrin B1 receptor straining both with and without A-II pre-treatment, harvested cells were plated onto sterile microscope slides within slide culture wells (Heraeus Instruments GmbH, Osterode am Harz, Germany) and incubated with fresh BCM. When sub-confluent the medium was replaced with serum-free BCM to which was added Angiotensin-II (A-II), or not in the case of controls which were subjected to otherwise identical preparation and straining. Angiotensin-II (A-II) was added in the concentration range 10^−5M to 10^−9M and incubated for 24 hours. The medium was then removed, the slides rinsed with PBS, air dried and stored frozen as above.
The slides, prepared as above, were removed from frozen storage and placed directly into 100% acetone (British Drug Houses) at −10° C. for 10 minutes. They were then air-dried for 10 minutes and rehydrated in 0.05 M Tris-buffered saline (TBS)(0.05 M sodium chloride, 0.05 M Trizma base, 36 mM hydrochloric acid, pH 7.6) twice for 3 minutes each. […]

β1 integrin [2] = experiment: 125I labelling and immunoprecipitation of β1 integrin, SDS-PAGE autoradiography; conditions: MCF-7 cells, A-II 10^−5 M for 24 hours, compared to control, non-reducing conditions
Procedure: Immunoprecipitation is a technique for the detection and quantification of target protein. It comprises the five steps of radiolabelling of the cell-membrane proteins, cell lysis, formation of the specific antibody-antigen complexes, extraction of these complexes and analysis of the radiolabelled target proteins contained within the immunoprecipitation. All experiments were performed in triplicate.
For immunoprecipitation experiments, MCF-7 cells were cultured in 5% FBS-supplemented MEM. When sub-confluent, the medium was removed and the cells washed with phosphate buffered saline (PBS) (0.15 M sodium chloride, 20 mM sodium monophosphate; pH 7.5). The medium was then replaced with serum-free MEM and treated with angiotensin-II (A-II) at a concentration of 10^−5 M for 24 hours. Control cells were cultured in serum-free medium only. On this occasion the cells were harvested not by trypsinisation, which may impair the immunoprecipitation process, but with a cell scraper. They were then gently passed repeatedly through a narrow pipette, to break down cell clusters, and centrifuged at 900 rpm per ten minutes.
The cell pellets as above were taken up in PBS and counted with the haemocytometer. Trypan blue exclusion was employed so that 1-2×10^6 viable cells were taken up in each 1 ml aliquot. […]

breast cancer cells [3] = experiment: Invasion chamber assay, IGF-I stimulated breast cancer cell invasion
Procedure: The effect of angiotensin-II (A-II) in inhibiting growth factor-induced stimulated cancer cell invasiveness was studied as a model system and the results are shown in FIG. 3. The study was carried out using an invasion chamber in which two compartments are separated by a perforated membrane coated in matrix protein. A chemoattractant, IGF-I, was added to the medium on one side of the chamber, and the breast cancer cells to the other. Invasiveness was measured by counting the cells that migrated from one chamber to the other.

breast cancer cells [4] = experiment: Breast cancer cell growth in culture, light microscopy

Substance: Asp-Arg-Val-Tyr-Ile-His-Pro-Phe (DRVYIHPF; Sequence Source Uncertain) [angiotensin-II]
- β1 integrin staining (expression of β1 integrin protein) (β1 integrin [1]): increase in staining
- β1 integrin expression (density of protein band on gel autoradiograph) (β1 integrin [2]): relative increase in density; also recorded: increased expression
- reduction in mean invasion (breast cancer cells [3]; A-II pre-treatment versus control, IGF-I chemoattractant): tenfold reduction
- mean invasion (breast cancer cells [3]; cells treated with A-II prior to invasion assay, chemoattractant IGF-I, control 1.58%, p=0.0011): 0.15%
- stimulation of cell growth (breast cancer cells [4]; breast cancer cells in culture): did not stimulate cell growth
- size of cell clusters in culture (breast cancer cells [4]; grown in presence of angiotensin-II versus control cultures, light microscopy): larger clusters of cells
